Experimental data from US10220024B2, “Method of inhibiting cancer cell, method for detecting cancer cell, and system for detecting cancer cell” (CANON KABUSHIKI KAISHA, priority 2012, dated 2019).
Like-named read-outs stand apart in the source and are kept apart here.

How the values were obtained:
[1] = system: K562 ALDH (+) fraction (cancer stem cells); experiment: Cancer stem-cell selective inhibitory action against chronic myelocytic leukemia cells, ALDH (+) fraction, CellTiter-Glo; assay type: cell-based; conditions: Homo sapiens, 24 hours; for activity at 10 µg/mL: 10 μg/ml; for activity at 1 µg/mL: 1 μg/mL
Experimental: (§1) Human chronic myelocytic leukemia cells, K562, were pre-cultured in RPMI1640 medium containing 10% FBS at 37° C. in a 5% CO2 ambient. Then, a fraction containing 80% or more of cancer stem cells was extracted by use of ALDEFLUOR reagent (manufactured by VERITAS Corporation) and FACSAria flow cytometry (manufactured by Nippon Becton, Dickinson and Company). Subsequently, Compound (5) was added to the medium so as to obtain a final concentration of 10 μg/mL and cultured at 37° C. for 24 hours in a 5% CO2 ambient. The cultured cells were analyzed for viable cell count according to CellTiter-Glo Luminescent Cell Viability Assay (manufactured by Promega KK.). As a reference, the number of cells cultured in a medium containing a 0.1% dimethylsulfoxide solution (hereinafter, simply referred to as DMSO) in place of a medium containing Compound (1), in the aforementioned operation, was used as 0.1. Note that hereinafter, an ALDEFLUOR reagent positive fraction (deemed as cancer stem cells) is represented by ALDH (+), whereas an ALDEFLUOR reagent negative fraction (not deemed as cancer stem cells) is represented by ALDH (−), in some cases.
(§2) The same operation as in Experimental Example 12 was repeated except that Compound (5) in Experimental Example 12 was changed to the compounds shown in Table 4 and final concentrations shown in Table 4 were used and viable cell counts were separately analyzed. Note that the growth rate in Examples herein is a numerical value of the number of cells obtained after culture relative to the number of cells (regarded as 0.1) grown in a medium containing 0.1% DMSO.
(§3) The same operation as in Experimental Example 12 was repeated except that Compound (5) in Experimental Example 12 was changed to Imatinib (manufactured by NOVARTIS), which is a general anticancer drug, and comparative compounds shown in Table 4 and final concentrations shown in Table 4 were used and viable cell counts were separately analyzed.
(§4) The growth suppressive effect of cancer stem cells was evaluated based on the following criteria. Note that the growth rate in Examples herein is a numerical value relative to the number of cells (regarded as 0.1) grown in a medium containing 0.1% DMSO. • A: The value of ALDH (+) is less than 0.5 (growth suppressive effect against cancer stem cells is extremely high) • B: The value of ALDH (+) is 0.5 or more and less than 0.95 (growth suppressive effect against cancer stem cells is high) • C: The value of ALDH (+) is 0.95 or more (no growth suppressive effect against cancer stem cells)
(§5) Furthermore, superiority of cancer stem cells was evaluated by comparing cancer stem cells to cancer cells based on the following criteria. ALDH (+) represents cancer stem cells; whereas ALDH (−) represents general cancer cells. • A: The value of ALDH (+)/ALDH (−) is less than 0.8 (selective inhibitory effect against cancer stem cells is extremely high) • B: The value of ALDH (+)/ALDH (−) is 0.8 or more and less than 0.95 (selective inhibitory effect against cancer stem cells is high) • C: The value of ALDH (+)/ALDH (−) is 0.95 or more (no selective inhibitory effect against cancer stem cells)

[2] = system: K562 ALDH (−) fraction (general cancer cells); experiment: Cancer stem-cell selective inhibitory action against chronic myelocytic leukemia cells, ALDH (−) fraction, CellTiter-Glo; assay type: cell-based, Human; conditions: Homo sapiens, 24 hours, relative to 0.1% DMSO, read-out: ALDH(−) (growth rate); for activity at 10 µg/mL: 10 μg/ml; for activity at 1 µg/mL: 1 μg/mL
Experimental: as §1, §2, §3, §4, §5

[3] = Measurement of fluorescent property of compound (spectrofluorometer); assay type: physicochemical; conditions: 5 μM DMSO solution
Experimental: The excitation wavelength and fluorescence wavelength of the compound were measured by a FL4500 spectrofluorometric measuring machine manufactured by Hitachi High-Technologies Corporation.

[4] = system: Human pancreas cancer cells, KLM-1; experiment: Cancer cell inhibitory (growth suppressive) action against pancreatic cancer cells, CellTiter-Glo viable cell count; assay type: cell-based; conditions: KLM1, KLM-1, 10 μg/mL, 24 hours
Experimental: (§6) Observation on cancer cell inhibitory (growth suppressive) action against pancreatic cancer cells Human pancreas cancer cells, KLM-1, were pre-cultured in RPMI1640 medium containing 10% FBS at 37° C. in a 5% CO2 ambient. Thereafter, 4,000 cells were seeded per well of a 96-well plate and further cultured for 24 hours. Subsequently, Compound (1) was added to the medium so as to obtain a final concentration of 10 μg/mL and cultured at 37° C. for 24 hours in a 5% CO2 ambient. The cultured cells were analyzed for viable cell count according to CellTiter-Glo Luminescent Cell Viability Assay (manufactured by Promega KK.). As a reference, the number of cells cultured in a medium containing a 0.1% dimethylsulfoxide solution (hereinafter, simply referred to as DMSO) in place of a medium containing Compound (1), in the aforementioned operation, was regarded (100%).
Viable cell count was analyzed in the same manner as in Experimental Example 1 except that Compound (1) of Experimental Example 1 was changed to compounds shown in Table 2.
Viable cell count was analyzed in the same manner as in Experimental Example 1 except that Compound (1) was changed to comparative compounds 1 to 4.
Viable cell counts of Experimental Examples 1 to 7 and Comparative Examples 1 to 4 were analyzed to obtain growth rates.
Evaluation of cancer cell inhibition against the pancreatic cancer cells (KLM-1) (growth suppression) was made based on the following criteria. Note that the growth rate in Examples herein is a numerical value of the number of cells obtained after culture relative to the number of cells (regarded as 100) grown in a medium containing 0.1% DMSO. Evaluation of cancer cell inhibition against the pancreatic cancer cells (KLM-1) was made as follows. • A: Cancer cell growth rate is less than 20% (cancer cell inhibitory (growth suppressive) effect is extremely high) • B: Cancer cell growth rate is 20% or more and less than 50% (cancer cell inhibitory (growth suppressive) effect is high) • C: Cancer cell growth rate is 50% or more (cancer cell inhibitory (growth suppressive) effect is low)

[5] = system: Prostatic cancer cells, PC-3; experiment: Cancer cell inhibitory (growth suppressive) action against prostatic cancer cells, CellTiter-Glo viable cell count; assay type: cell-based; conditions: PC-3, 10 μg/mL, 24 hours
Experimental: as §6, with “Prostatic” for “Observation on cancer cell inhibitory (growth suppressive) action against pancreatic cancer cells Human pancreas”, “PC-3,” for “KLM-1,”, “(11)” for “(1)”, “(11),” for “(1),”, “used as 100.” for “regarded (100%).”
Viable cell count was analyzed in the same manner as in Experimental Example 8 except that the compounds shown in Table 3 were used in place of Compound (11) of Experimental Example 8.
Viable cell count was analyzed in the same manner as in Experimental Example 8 except that comparative compounds 1 to 4 were used in place of Compound (11) of Experimental Example 8.
The growth rate in Examples herein is a numerical value of the number of cells obtained after culture relative to the number of cells (regarded as 100) grown in a medium containing 0.1% DMSO.
Evaluation of cancer cell inhibition against the prostatic cancer cells (PC-3) was made as follows. • A: Cancer cell growth rate is less than 20% (cancer cell inhibitory (growth suppressive) effect is extremely high) • B: Cancer cell growth rate is 20% or more and less than 50% (cancer cell inhibitory (growth suppressive) effect is high) • C: Cancer cell growth rate is 50% or more (cancer cell inhibitory (growth suppressive) effect is low)

[6] = read-out: Growth suppression evaluated
[7] = relative to 0.1% DMSO, read-out: ALDH(+) (growth rate)
[8] = read-out: Evaluation (cancer cell growth rate)
[9] = relative to 0.1% DMSO (100), read-out: Cancer cell growth rate (%)

Compound	Excitation wavelength λex [3]	Fluorescence wavelength λem [3]	activity at 10 µg/mL [1, 6]	activity at 10 µg/mL [1, 7]	activity at 10 µg/mL [2]	activity at 10 µg/mL [4, 8]	activity at 10 µg/mL [4, 9]	activity at 10 µg/mL [5, 8]	activity at 10 µg/mL [5, 9]	activity at 1 µg/mL [1, 6]	activity at 1 µg/mL [1, 7]	activity at 1 µg/mL [2]
CCC[N+]1=C(/C=C/C=C/c2ccc(N(C)C)cc2)C(C)(C)c2ccccc21 [Compound 26]	609 nm	692 nm	–	–	–	< 20%	8.9%	< 20%	5.8%	–	–	–
CCn1c2ccccc2c2cc(/C=C/C3=[N+](C)c4ccc5ccccc5c4C3(C)C)ccc21 [Compound 40]	–	–	< 50%	6%	13%	–	–	–	–	50 to 95%	73%	85%
CCN1C(=O)/C(=c2\s/c(=C/c3ccc4c(c3)c3ccccc3n4CC)c(=O)n2CC(=O)O)SC1=S [compound 1, reference compound]	–	–	–	–	–	≥ 50%	99%	≥ 50%	104%	–	–	–
CCOC(=O)Cn1c(=O)/c(=C\c2ccc3c(c2)C2CCCC2N3c2ccccc2)s/c1=C1/SC(=S)N(CC)C1=O (stereo not shown) [compound 2, reference compound]	–	–	–	–	–	≥ 50%	91%	≥ 50%	88.8%	–	–	–
COc1ccc(N2c3ccc(/C=C4/SC(=S)N(CCC(=O)O)C4=O)cc3C3CCCC32)cc1 (stereo not shown) [compound 3, reference compound]	–	–	–	–	–	≥ 50%	95%	≥ 50%	86.5%	–	–	–
CCn1c2ccccc2c2cc(/C=C3/SC(=S)N(CC(=O)O)C3=O)ccc21 [compound 4, reference compound]	–	–	–	–	–	≥ 50%	100%	≥ 50%	99.9%	–	–	–
O=C(O)Cn1c(=O)/c(=C\c2ccc3c(c2)C2CCCC2N3c2ccccc2)s/c1=C1/SC(=S)N(Cc2ccccc2)C1=O (stereo not shown) [compound 5, reference compound]	–	–	≥ 95%	107%	90%	–	–	–	–	≥ 95%	106%	97%

More lines, main results first:

Excitation wavelength λex [3]	Fluorescence wavelength λem [3]	Compound	activity at 10 µg/mL [1, 6]	activity at 10 µg/mL [1, 7]	activity at 10 µg/mL [2]	activity at 10 µg/mL [4, 8]	activity at 10 µg/mL [4, 9]	activity at 10 µg/mL [5, 8]	activity at 10 µg/mL [5, 9]	activity at 1 µg/mL [1, 6]	activity at 1 µg/mL [1, 7]	activity at 1 µg/mL [2]
586 nm	623 nm	CCN1c2ccc(/C=C/C3=[N+](CC)c4ccc(OC)cc4C34CCCCC4)cc2C2CCCC21 (stereo not shown) [Compound 8]	< 50%	23%	32%	20 to 50%	24.3%	–	–	–	–	–
611 nm	720 nm	CC1(C)C(/C=C/c2ccc3c(c2)C2CCCC2N3c2ccc(C=C(c3ccccc3)c3ccccc3)cc2)=[N+](CCC(=O)O)c2ccccc21 (stereo not shown) [Compound 31]	–	–	–	–	–	–	–	–	–	–
592 nm	671 nm	COc1ccc(N2c3ccc(/C=C/C4=[N+](CCC(=O)O)c5ccccc5C4(C)C)cc3C3CCCC32)cc1 (stereo not shown) [Compound 32]	50 to 95%	78%	90%	–	–	–	–	–	–	–
560 nm	677 nm	COc1ccc(N2c3ccc(/C=C/c4sc5ccccc5[n+]4CC(=O)O)cc3C3CCCC32)cc1 (stereo not shown) [Compound 33]	50 to 95%	90%	101%	–	–	–	–	–	–	–
575 nm	611 nm	CCN1c2ccc(/C=C/C3=[N+](C)c4ccccc4C3(C)C)cc2C2CCCC21 (stereo not shown) [Compound 34]	< 50%	17%	24%	–	–	–	–	–	–	–
488 nm	594 nm	CCn1c2ccccc2c2cc(/C=C/C3=[N+](C)c4ccccc4C3(C)C)ccc21 [Compound 36]	< 50%	13%	20%	–	–	–	–	–	–	–
573 nm	670 nm	COc1ccc(N2c3ccc(/C=C/C4=[N+](C)c5ccccc5C4(C)C)cc3C3CCCC32)cc1 (stereo not shown) [Compound 38]	< 50%	5%	11%	–	–	–	–	–	–	–
591 nm	626 nm	CCN1c2ccc(/C=C/C3=[N+](C)c4ccc5ccccc5c4C3(C)C)cc2C2CCCC21 (stereo not shown) [Compound 39]	< 50%	6%	13%	–	–	–	–	–	–	–
